± gives the expanded uncertainty stated by the source.
How the values were obtained:
[1] = refractive index (Na D-line) (dimensionless); settings: 298.15 K; 101.33 kPa; Liquid; Standard Abbe refractometry
[2] = 298.15 K; 101.33 kPa; Liquid; Vibrating tube method

SMILES	refractive index [1]	mass density [2] [kg/m3]
CC(=O)O [acetic acid]	1.3714 ± 0.0008	1044.12 ± 10
O=CO [formic acid]	1.371 ± 0.0008	1219.5 ± 10
CCC(=O)O [propanoic acid]	1.3807 ± 0.0008	998.04 ± 10
O [water]	1.3324 ± 0.0008	

Now from value to molecule:

refractive index [1]	mass density [2] [kg/m3]	SMILES
1.3977 ± 0.0008	952.68 ± 10	CCCC(=O)O [butanoic acid]
1.493 ± 0.0008	862.51 ± 10	CCc1ccccc1 [ethylbenzene]
